Values quoted from earlier work as cited in patent US20080139510A1, “Treatment of migraine headaches with sublingual amino acids” (priority 2006, published 2008).

Tested on: migraine attack
Settings: oral administration, tablet or capsule

N[C@@H](Cc1c[nH]c2ccc(O)cc12)C(=O)O [5-HTP, 5-hydroxytryptophan]
aborting or significantly mitigating pain after onset of migraine attack: ineffective
